Laboratory results taken from patent US7939534B2, “Certain chemical entities, compositions, and methods” (Cytokinetics, Inc., priority 2006, dated 2011).
pIC50: −log10 of the molar value.

Target: T1, chicken gizzard smooth muscle myosin subfragment-1 chemically crosslinked to either cardiac or skeletal actin (Gallus gallus, UniProt P10587)
T1 construct: chicken gizzard smooth muscle myosin subfragment-1; from tissue; host or cells: chicken gizzard
Assay: Dose dependent smooth muscle myosin ATPase modulation (pyruvate kinase/horseradish peroxidase/pyruvate oxidase-coupled ATPase assay)
Assay type: biochemical
Settings: read-out: IC50 Arithmetic Mean
Outline: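 Chicken gizzard smooth muscle myosin S1 crosslinked (EDC/NHS) to cardiac or skeletal actin, concentration titrated to a set ATPase rate. Pyruvate kinase/pyruvate oxidase/HRP-coupled assay, 0.15 mM ATP, 12 mM K-PIPES pH 7.00, 100 mM KCl, amplex red fluorescence; IC50 from 4-parameter fit.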

| pIC50 | Compound |
| --- | --- |
| 4.41 | NCC1CCN(c2ccc(C(=O)NCc3cccnc3)c(NCCc3cccc(F)c3)n2)CC1 [Compound 105, (6-[4-(aminomethyl)piperidyl]-2-{[2-(3-fluorophenyl)ethyl]amino}(3-pyridyl))-N-(3-pyridylmethyl)carboxamide] |
| 5.95 | CNC(=O)CNC(=O)c1ccc(N2CCCCC2)nc1NCCc1cccc(F)c1 [Compound 106, 2-[(2-{[2-(3-fluorophenyl)ethyl]amino}-6-piperidyl(3-pyridyl))carbonylamino]-N-methylacetamide] |
| 4.94 | CS(=O)(=O)C1CCN(c2ccc(C(=O)NCc3cccnc3)c(NCCc3cccc(F)c3)n2)C1 (centres unmarked) [Compound 107, (2-{[2-(3-fluorophenyl)ethyl]amino}-6-[3-(methylsulfonyl)pyrrolidinyl](3-pyridyl))-N-(3-pyridylmethyl)carboxamide] |
| 4.17 | COC[C@@H]1CCCN1c1ccc(C(=O)NCc2cccnc2)c(NCCc2cccc(F)c2)n1 [Compound 108, (6-[(2S)-2-(methoxymethyl)pyrrolidinyl]-2-{[2-(3-fluorophenyl)ethyl]amino}(3-pyridyl))-N-(3-pyridylmethyl)carboxamide] |
| 4.78 | O=C(NCc1cccnc1)c1ccc(N2CCC(O)(c3ccccc3)CC2)nc1NCCc1cccc(F)c1 [Compound 111, (2-{[2-(3-fluorophenyl)ethyl]amino}-6-(4-hydroxy-4-phenylpiperidyl)(3-pyridyl))-N-(3-pyridylmethyl)carboxamide] |
| 5.81 | CCOC(=O)C1CCN(c2ccc(C(=O)NCc3cccnc3)c(NCCc3cccc(F)c3)n2)CC1 [Compound 112, ethyl 1-(6-{[2-(3-fluorophenyl)ethyl]amino}-5-[N-(3-pyridylmethyl)carbamoyl]-2-pyridyl)piperidine-4-carboxylate] |
| 6.37 | O=C(NCc1cccnc1)c1ccc(N2CC[C@H](F)C2)nc1NCCc1cccc(F)c1 [Compound 113, (6-((3S)-3-fluoropyrrolidinyl)-2-{[2-(3-fluorophenyl)ethyl]amino}(3-pyridyl))-N-(3-pyridylmethyl)carboxamide] |
| 4.96 | CNC(=O)C1CCN(c2ccc(C(=O)NCc3cccnc3)c(NCCc3cccc(F)c3)n2)CC1 [Compound 114, (2-{[2-(3-fluorophenyl)ethyl]amino}-6-[4-(N-methylcarbamoyl)piperidyl](3-pyridyl))-N-(3-pyridylmethyl)carboxamide] |
| 6.12 | O=C(NCc1cccnc1)c1ccc(N2CCC(O)CC2)nc1NCCc1cccc(F)c1 [Compound 115, (2-{[2-(3-fluorophenyl)ethyl]amino}-6-(4-hydroxypiperidyl)(3-pyridyl))-N-(3-pyridylmethyl)carboxamide] |
| 4.50 | O=C(NCc1cccnc1)c1ccc(N2CCNCC2)nc1NCCc1cccc(F)c1 [Compound 116, (2-{[2-(3-fluorophenyl)ethyl]amino}-6-piperazinyl(3-pyridyl))-N-(3-pyridylmethyl)carboxamide] |
| 4.68 | CC(=O)NC1CCN(c2ccc(C(=O)NCc3cccnc3)c(NCCc3cccc(F)c3)n2)C1 (centres unmarked) [Compound 118, N-[1-(6-{[2-(3-fluorophenyl)ethyl]amino}-5-[N-(3-pyridylmethyl)carbamoyl]-2-pyridyl)pyrrolidin-3-yl]acetamide] |
| 5.14 | O=C(NCc1cccnc1)c1ccc(N2CCOC(CO)C2)nc1NCCc1cccc(F)c1 (centres unmarked) [Compound 119, (2-{[2-(3-fluorophenyl)ethyl]amino}-6-[2-(hydroxymethyl)morpholin-4-yl](3-pyridyl))-N-(3-pyridylmethyl)carboxamide] |
| 4.23 | CN[C@H]1CCN(c2ccc(C(=O)NCc3cccnc3)c(NCCc3cccc(F)c3)n2)C1 [Compound 120, (6-[(3S)-3-(methylamino)pyrrolidinyl]-2-{[2-(3-fluorophenyl)ethyl]amino}(3-pyridyl))-N-(3-pyridylmethyl)carboxamide] |
| 5.80 | O=C(NCc1cccnc1)c1ccc(N2CCSCC2)nc1NCCc1cccc(F)c1 [Compound 121, (2-{[2-(3-fluorophenyl)ethyl]amino}-6-(1,4-thiazaperhydroin-4-yl)(3-pyridyl))-N-(3-pyridylmethyl)carboxamide] |
| 4.52 | O=C(NCc1cccnc1)c1ccc(N2CCS(=O)(=O)CC2)nc1NCCc1cccc(F)c1 [Compound 122, (6-(1,1-dioxo(1,4-thiazaperhydroin-4-yl))-2-{[2-(3-fluorophenyl)ethyl]amino}(3-pyridyl))-N-(3-pyridylmethyl)carboxamide] |
| 5.07 | CC(=O)N1CCN(c2ccc(C(=O)NCc3cccnc3)c(NCCc3cccc(F)c3)n2)CC1 [Compound 123, (6-(4-acetylpiperazinyl)-2-{[2-(3-fluorophenyl)ethyl]amino}(3-pyridyl))-N-(3-pyridylmethyl)carboxamide] |
| 4.53 | O=C(NCc1cccnc1)c1ccc(N2CCC(N3CCCCC3)CC2)nc1NCCc1cccc(F)c1 [Compound 124, (2-{[2-(3-fluorophenyl)ethyl]amino}-6-(4-piperidylpiperidyl)(3-pyridyl))-N-(3-pyridylmethyl)carboxamide] |
| 5.50 | CCOC(=O)N1CCN(c2ccc(C(=O)NCc3cccnc3)c(NCCc3cccc(F)c3)n2)CC1 [Compound 125, ethyl 4-(6-{[2-(3-fluorophenyl)ethyl]amino}-5-[N-(3-pyridylmethyl)carbamoyl]-2-pyridyl)piperazinecarboxylate] |
| 6.67 | N-{[(2R)-1-(2-aminoacetyl)pyrrolidin-2-yl]methyl}(5-fluoro-2-{[2-(3-fluorophenyl)ethyl]amino}-6-pyrrolidinyl(3-pyridyl))carboxamide [Compound 76] |
| 6.51 | N-{[(2R)-1-(4-aminobutanoyl)pyrrolidin-2-yl]methyl}(5-fluoro-2-{[2-(3-fluorophenyl)ethyl]amino}-6-pyrrolidinyl(3-pyridyl))carboxamide [Compound 74] |

| Compound | pIC50 |
| --- | --- |
| CC(C)(C)OC(=O)NCC1CCN(c2ccc(C(=O)NCc3cccnc3)c(NCCc3cccc(F)c3)n2)CC1 [Compound 109, (tert-butoxy)-N-{[1-(6-{[2-(3-fluorophenyl)ethyl]amino}-5-[N-(3-pyridylmethyl)carbamoyl](2-pyridyl))(4-piperidyl)]methyl}carboxamide] | 5.34 |
| CC(C)(C)OC(=O)NC1CCN(c2ccc(C(=O)NCc3cccnc3)c(NCCc3cccc(F)c3)n2)CC1 [Compound 110, (tert-butoxy)-N-[1-(6-{[2-(3-fluorophenyl)ethyl]amino}-5-[N-(3-pyridylmethyl)carbamoyl](2-pyridyl))(4-piperidyl)]carboxamide] | 4.79 |
| N-[((2R)-1-{4-[(tert-butoxy)carbonylamino]butanoyl}pyrrolidin-2-yl)methyl](5-fluoro-2-{[2-(3-fluorophenyl)ethyl]amino}-6-pyrrolidinyl(3-pyridyl))carboxamide [Compound 75] | 5.07 |
